We go through 3 compounds from patent US20210163424A1, “ECO-FRIENDLY MATERIALS AND METHODS FOR RENEWABLE AND SUSTAINABLE APPLICATIONS IN MATERIAL CHEMISTRY” (NDSU RESEARCH FOUNDATION, priority 2016, published 2021).

The nature of data set [1]: Ground state acidity (pKa) from α-plot of UV-Vis spectra at various pH. Type of data set: physicochemical. As to the method: (§1) Thus pKa* is most commonly calculated from the difference in the S1 excited state 0-0 transition of the acid (EHA) and the conjugate base (EA−)(2c). In order to determine the excited state acidity of the vanillin analogs, the ground state acidity was determined. An α-plot was made, by taking the UV-Vis spectra of ortho-vanillin at various pH using NaOH and HCl as the base and acid respectively (5c). Both iso-vanillin and vanillin ground state acidities were literature reported. After obtaining the ground state acidity the excited state acidity (pKa*) was investigated. Fluorescence, phosphorescence and luminescence spectra were measured in different solvents. It was determined that none of the vanillin analogs fluoresced appreciably and therefore were all poor photoacids. […] Various substituted Grignard reagents were used to reduce the carbonyl to a tertiary alcohol therefore eliminating the carbonyl functionality and hindering inter-system crossing (FIG. 32).
(§2) The ground state and excited state acidities were determined. […] Derivatives 1a and 1b were handled in a similar fashion.

A short description of data set [2]: Excited state acidity / photoacidity (pKa*) from Foster cycle. It is filed as physicochemical.
Source text: Investigations commenced determining the extent or existence of excited state proton transfer, photoacidity (pKa*), of vanillin and its analogs ortho-vanillin and iso-vanillin. From the Foster cycle, pKa* is mathematically defined by the following equation,
=pKa*+pKa+(EA−−EHA)/2.3RT.^1 (1)
as §1, §2

As a reminder, the pKa is the negative logarithm of the acid dissociation constant. In the case of `COc1cc(C(C)O)ccc1O` (stereo not drawn) [1a], in data set [1], the pKa worked out at 9.8. Also, the “pKa*” value in data set [2] was 9.6.
In data set [1], `COc1ccc(C(C)O)cc1O` (stereo not drawn) [1b] had a pKa of 9.8. The “pKa*” value in data set [2] came out at 5.6.
The matching figures for `COc1cccc(C(C)O)c1O` (stereo not drawn) [1c]: 8 and 4.9.
